From BindingDB's records for doi:10.7270/Q2M32T6M (Vanderbilt Screening Center for GPCRs, Ion Channels and …, 2009)
pEC50: −log10 of the molar value.

molecular target: T1, Solute carrier family 12 member 5 (Homo sapiens, UniProt Q9H2X9); assay: concentration-response of KCC2 transport modulators – cell-based, HEK293 KCC2, FluoZin-2 fluorescence, dose response (AID 1736); details: not given
T1 sequence (Q9H2X9 whole entry): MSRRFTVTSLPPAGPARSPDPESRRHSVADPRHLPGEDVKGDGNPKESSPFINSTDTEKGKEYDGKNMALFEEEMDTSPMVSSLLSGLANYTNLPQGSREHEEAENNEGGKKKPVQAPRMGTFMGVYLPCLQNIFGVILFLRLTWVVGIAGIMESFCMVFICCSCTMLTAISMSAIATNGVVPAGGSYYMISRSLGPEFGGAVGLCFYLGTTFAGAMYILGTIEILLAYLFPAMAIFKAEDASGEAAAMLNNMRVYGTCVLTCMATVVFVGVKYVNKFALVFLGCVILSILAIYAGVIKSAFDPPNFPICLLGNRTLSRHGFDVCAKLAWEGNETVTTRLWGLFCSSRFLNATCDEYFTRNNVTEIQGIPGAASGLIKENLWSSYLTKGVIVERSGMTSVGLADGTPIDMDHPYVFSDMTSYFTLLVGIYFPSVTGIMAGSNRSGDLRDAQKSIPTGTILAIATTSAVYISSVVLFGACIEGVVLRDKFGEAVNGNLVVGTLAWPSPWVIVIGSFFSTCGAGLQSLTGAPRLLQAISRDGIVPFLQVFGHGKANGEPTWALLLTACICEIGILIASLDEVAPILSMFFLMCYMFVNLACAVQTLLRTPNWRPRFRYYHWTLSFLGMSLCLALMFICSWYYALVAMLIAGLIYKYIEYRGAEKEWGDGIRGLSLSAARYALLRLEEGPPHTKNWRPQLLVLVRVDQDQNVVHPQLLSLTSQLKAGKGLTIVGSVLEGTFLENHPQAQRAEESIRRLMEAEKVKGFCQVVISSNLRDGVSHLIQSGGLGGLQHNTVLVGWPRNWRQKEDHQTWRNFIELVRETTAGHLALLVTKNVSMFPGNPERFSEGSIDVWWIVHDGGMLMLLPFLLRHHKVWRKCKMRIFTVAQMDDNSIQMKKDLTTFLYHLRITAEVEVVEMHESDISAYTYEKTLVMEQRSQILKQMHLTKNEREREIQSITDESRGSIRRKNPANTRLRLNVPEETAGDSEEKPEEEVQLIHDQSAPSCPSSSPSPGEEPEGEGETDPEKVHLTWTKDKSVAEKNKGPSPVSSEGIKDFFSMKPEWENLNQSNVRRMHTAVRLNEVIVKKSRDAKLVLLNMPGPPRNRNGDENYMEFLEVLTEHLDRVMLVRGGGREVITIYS

| Structure (SMILES) | pEC50 |
| --- | --- |
| Cc1ccc(-c2n[nH]c(=S)n2NC=CCc2ccccc2[N+](=O)[O-])cc1 | 5.89 |
| Cc1[nH]c2ccccc2c1Cc1n[nH]c(=S)n1C | 4.50 |
| COc1cc(C=NN(C)c2ccccc2)ccc1O | 5.56 |
| Cc1[nH]c2ccccc2c1Cc1nnc(S)o1 | 6.13 |
| NC1=NC[C@@H](Cc2ccc(O)cc2)N1CCc1cc(C(F)(F)F)cc(C(F)(F)F)c1 | 4.42 |
| O=C1OC(c2ccc(O)cc2)(c2ccc(O)cc2)c2ccccc21 | 5.74 |
| O=C(O)c1cc(-c2ccc(F)cc2F)ccc1O | 5.49 |
| CSc1ccccc1N=C(S)Nc1ccc(S(N)(=O)=O)cc1 [1-(2-methylsulfanylphenyl)-3-(4-sulfamoylphenyl)thiourea] | 4.89 |
| C=CCn1c(Cc2cccs2)nnc1SCC(=O)c1ccc2ccccc2c1 [1-(2-naphthalenyl)-2-[[4-prop-2-enyl-5-(thiophen-2-ylmethyl)-1,2,4-triazol-3-yl]thio]ethanone] | 5.21 |
| Cc1c(C(=O)NCCSCc2ccc(F)cc2)cnn1-c1ccc(Cl)cc1 [1-(4-chlorophenyl)-N-[2-[(4-fluorobenzyl)thio]ethyl]-5-methyl-pyrazole-4-carboxamide] | 3.33 |
| O=C(CSc1nnc(Cc2ccccc2)o1)c1ccc(F)cc1 [1-(4-fluorophenyl)-2-[[5-(phenylmethyl)-1,3,4-oxadiazol-2-yl]sulfanyl]ethanone] | 5.54 |
| COc1ccc(N2C(=S)N=C(Nc3cccc(C)c3)C23CCCCC3)cc1 [1-(4-methoxyphenyl)-4-(3-methylanilino)-1,3-diazaspiro[4.5]dec-3-ene-2-thione] | 4.85 |
| S=C(NCc1cccnc1)Nc1ccc(Oc2ccccc2)cc1 [1-(4-phenoxyphenyl)-3-(3-pyridinylmethyl)thiourea] | 5.92 |
| Cc1cccc(Nc2nnc(SCC(=O)c3ccc(Br)s3)s2)c1C [1-(5-bromanylthiophen-2-yl)-2-[[5-[(2,3-dimethylphenyl)amino]-1,3,4-thiadiazol-2-yl]sulfanyl]ethanone] | 5.37 |
| Cc1ccc(Nc2nnc(SCC(=O)c3ccc(Br)s3)s2)c(C)c1 [1-(5-bromanylthiophen-2-yl)-2-[[5-[(2,4-dimethylphenyl)amino]-1,3,4-thiadiazol-2-yl]sulfanyl]ethanone] | 5.91 |
| Cc1noc(C)c1S(=O)(=O)N1CCC(C(=O)N2CCN(c3ccc(F)cc3)CC2)CC1 [1-({1-[(3,5-dimethylisoxazol-4-yl)sulfonyl]piperidin-4-yl}carbonyl)-4-(4-fluorophenyl)piperazine] | 4.64 |
| O=S(=O)(NCc1ccccc1)c1ccc(Cl)c(S(=O)(=O)NCc2ccccc2)c1 [1-N,3-N-dibenzyl-4-chlorobenzene-1,3-disulfonamide] | 5.77 |
| Cc1nc2cc(C(F)(F)F)ccc2n1C1CCN(Cc2nnnn2Cc2ccc3c(c2)OCO3)CC1 [1-[1-(1-Benzo[1,3]dioxol-5-ylmethyl-1H-tetrazol-5-ylmethyl)-piperidin-4-yl]-2-methyl-5-trifluoromethyl-1H-benzoimidazole] | 5.48 |
| CC(C)(CN=C(S)NCCc1ccccc1)CN=C(S)NCCc1ccccc1 [1-[2,2-dimethyl-3-(2-phenylethylcarbamothioylamino)propyl]-3-(2-phenylethyl)thiourea] | 4.78 |
| Cc1ccc2oc(-c3ccc(C)c(NC(=S)NC(=O)c4cccs4)c3)nc2c1 [1-[2-Methyl-5-(5-methyl-benzooxazol-2-yl)-phenyl]-3-(thiophene-2-carbonyl)-thiourea] | 6.12 |

Results, then the compound that gave them:

| pEC50 | Structure (SMILES) |
| --- | --- |
| 7.34 | O=c1[nH]c2c(s1)C(c1ccccc1)c1c(c(O)n(-c3ccccc3)c1O)S2 (configuration not stated) |
| 5.19 | O=C(CSc1ccccc1C(=O)NCc1ccccc1)NC12CC3CC(CC(C3)C1)C2 |
| 5.66 | CC(C)N1C(=O)S/C(=C/c2ccccc2OCc2ccc(C(=O)O)cc2)C1=O |
| 4.82 | CC1CCCCN1C(=O)CSc1nnc(-c2c[nH]c3ccccc23)o1 (configuration not stated) |
| 4.88 | CCn1c(=O)n(CC)c2cc(S(=O)(=O)N3CCC(c4ccccc4)CC3)ccc21 [1,3-diethyl-5-(4-phenylpiperidin-1-yl)sulfonyl-benzimidazol-2-one] |
| 5.41 | O=C(CSc1nnc(C2CC2)n1Cc1ccccc1)c1cc2ccccc2o1 [1-(1-benzofuran-2-yl)-2-[(4-benzyl-5-cyclopropyl-1,2,4-triazol-3-yl)sulfanyl]ethanone] |
| 3.95 | O=C(CC(C(=O)N1CCc2ccccc21)n1ccnc1)N1CCc2ccccc2C1 (configuration not stated) [1-(2,3-dihydroindol-1-yl)-4-(3,4-dihydro-1H-isoquinolin-2-yl)-2-(1-imidazolyl)butane-1,4-dione] |
| 6.86 | CC1Cc2ccccc2N1C(=O)CSc1nnc(CNc2ccccc2)o1 (configuration not stated) [1-(2-Methyl-2,3-dihydro-indol-1-yl)-2-(5-phenylaminomethyl-[1,3,4]oxadiazol-2-ylsulfanyl)-ethanone] |
| 5.24 | S=C(NCc1ccccc1Cl)Nc1ccccc1Cl [1-(2-chlorobenzyl)-3-(2-chlorophenyl)thiourea] |
| 5.25 | O=C(CSc1nnc(-c2ccc(O)cc2)n1Cc1ccco1)N1CCc2ccccc2C1 [1-(3,4-Dihydro-1H-isoquinolin-2-yl)-2-[4-furan-2-ylmethyl-5-(4-hydroxy-phenyl)-4H-[1,2,4]triazol-3-ylsulfanyl]-ethanone] |
| 2.76 | O=C(CSc1nnc(CNc2ccccc2)o1)N1CCCc2ccccc21 [1-(3,4-Dihydro-2H-quinolin-1-yl)-2-(5-phenylaminomethyl-[1,3,4]oxadiazol-2-ylsulfanyl)-ethanone] |
| 5.43 | Cc1oc(-c2ccccc2)nc1C[S+]([O-])CC(=O)N1CCc2ccccc2C1 (configuration not stated) [1-(3,4-dihydro-1H-isoquinolin-2-yl)-2-[(5-methyl-2-phenyl-1,3-oxazol-4-yl)methylsulfinyl]ethanone] |
| 4.86 | Cc1cccc(-c2nc(C[S+]([O-])CC(=O)N3CCc4ccccc4C3)c(C)o2)c1 (configuration not stated) [1-(3,4-dihydro-1H-isoquinolin-2-yl)-2-[[5-methyl-2-(3-methylphenyl)-1,3-oxazol-4-yl]methylsulfinyl]ethanone] |
| 5.07 | Cn1cc(C(=O)C(=O)N2CCCc3ccccc32)c2ccccc21 [1-(3,4-dihydro-2H-quinolin-1-yl)-2-(1-methyl-3-indolyl)ethane-1,2-dione] |
| 4.87 | O=C(CSc1ccc(-c2ccccc2)nn1)N1CCCc2ccccc21 [1-(3,4-dihydro-2H-quinolin-1-yl)-2-(6-phenylpyridazin-3-yl)sulfanyl-ethanone] |
| 5.08 | S=C(NN=Cc1cccc2ccccc12)Nc1cccc(Cl)c1 [1-(3-chlorophenyl)-3-(1-naphthalenylmethylideneamino)thiourea] |
| 5.12 | O=C(c1ccc(N2CCCCCC2)c([N+](=O)[O-])c1)N1CCc2ccccc21 [1-(4-azepan-1-yl-3-nitrobenzoyl)indoline] |
| 5.91 | Cc1ccc(S(=O)(=O)N2CCC(=O)N(C(COCc3ccccc3)Cc3ccccc3)CC2)cc1 (configuration not stated) [1-(4-methylphenyl)sulfonyl-4-(1-phenyl-3-phenylmethoxy-propan-2-yl)-1,4-diazepan-5-one] |
| 4.97 | CCOC(=O)c1cc2c(ccn2C)n1CC(=O)N1CCC(Cc2ccccc2)CC1 [1-[2-(4-Benzyl-piperidin-1-yl)-2-oxo-ethyl]-4-methyl-1,4-dihydro-pyrrolo[3,2-b]pyrrole-2-carboxylic acid ethyl ester] |

same assay, conditions: inactive by the depositor's call

| Structure (SMILES) | pEC50 |
| --- | --- |
| S=c1nc(-c2ccc3c(c2)CCO3)cc[nH]1 | 4.78 |
| Cc1[nH][nH]c(=O)c1C(c1ccc(-c2ccc(Cl)c(Cl)c2)o1)c1c(C)[nH][nH]c1=O | 3.89 |
| Cc1ccc(C=NNC(=S)Nc2cccc(S(=O)(=O)N(C)C)c2)o1 | 4.78 |
| S=C(Nc1ccccn1)Nc1ccccc1Cl [1-(2-chlorophenyl)-3-(2-pyridinyl)thiourea] | 5.71 |
| Cc1nc(SCC(=O)N2CCc3ccccc3C2)c2c(C)c(C)sc2n1 [1-(3,4-Dihydro-1H-isoquinolin-2-yl)-2-(2,5,6-trimethyl-thieno[2,3-d]pyrimidin-4-ylsulfanyl)-ethanone] | 4.83 |
| Cc1ccc(C(=O)CSc2nnc(COc3cccc4cccnc34)o2)cc1 [1-(4-methylphenyl)-2-[[5-(8-quinolinyloxymethyl)-1,3,4-oxadiazol-2-yl]thio]ethanone] | 5.09 |

The next lines start with the values.

| pEC50 | Structure (SMILES) |
| --- | --- |
| 5.68 | O=C(CSc1nnc(CNc2ccccc2)o1)c1ccc2c(c1)OCCO2 [1-(2,3-Dihydro-benzo[1,4]dioxin-6-yl)-2-(5-phenylaminomethyl-[1,3,4]oxadiazol-2-ylsulfanyl)-ethanone] |
| 4.66 | Cc1ccccc1-c1nc(CS(=O)(=O)CC(=O)N2CCc3ccccc3C2)c(C)o1 [1-(3,4-dihydro-1H-isoquinolin-2-yl)-2-[[5-methyl-2-(2-methylphenyl)-1,3-oxazol-4-yl]methylsulfonyl]ethanone] |
